By IC50 is commonly meant the concentration that gives 50% inhibition. Low readings indicate greater potency, high ones weaker potency. What is called AUC(0-t) is the area under the concentration-time curve up to a stated or last time point. The low end stands for low exposure, the high end for high exposure. Broadly, the AUC is the area under the concentration-time curve, a measure of exposure. Low readings indicate less exposure, high ones more exposure. The MRT is a mean duration of stay, worked out from the concentration-time curve. One may read the half-life as the time needed for the level to fall by half in the phase considered. A word on the Km: it is the concentration of substrate that gives half-maximal velocity.

Marks after values point to notes of the source that are not given here.

One data set deals with T1, UGT1A1 (Homo sapiens, UniProt P22309).
T1 construct: The reaction mixture containing 0.25 mg/mL protein of HLM; tissue Corning Life Sciences 452156; host or cells: pooled human liver microsomes, 50 donors
T1 sequence (P22309 26-533): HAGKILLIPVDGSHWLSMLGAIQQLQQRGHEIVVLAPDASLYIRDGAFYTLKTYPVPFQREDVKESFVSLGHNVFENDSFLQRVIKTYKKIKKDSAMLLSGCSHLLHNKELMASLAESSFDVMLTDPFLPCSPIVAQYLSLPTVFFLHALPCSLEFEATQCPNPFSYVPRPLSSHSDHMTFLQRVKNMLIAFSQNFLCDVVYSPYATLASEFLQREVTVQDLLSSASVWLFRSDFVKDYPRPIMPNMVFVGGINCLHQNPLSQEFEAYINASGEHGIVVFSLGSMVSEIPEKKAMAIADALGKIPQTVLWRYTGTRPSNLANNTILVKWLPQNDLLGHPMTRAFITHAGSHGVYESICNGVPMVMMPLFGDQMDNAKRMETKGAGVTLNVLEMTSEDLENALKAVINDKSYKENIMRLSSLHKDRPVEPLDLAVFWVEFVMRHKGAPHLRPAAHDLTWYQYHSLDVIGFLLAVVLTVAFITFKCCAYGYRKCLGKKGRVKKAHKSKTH
Put plainly: Inhibition of UGT1A1 (β-estradiol glucuronidation) in human liver microsomes. It is filed as in vitro ADME. The following applies: substrate 10 μM β-estradiol, mean (minimum–maximum). As to the method: (§1) Their IC50 values were compared to that of sauchinone. […] UGT-mediated activities in the presence of sauchinone as an inhibitor were expressed as percentages of corresponding control values (in absence of sauchinone). From percentages of control activity versus inhibitor concentrations, a sigmoid shaped curve was fitted to the data and IC50 as an enzyme inhibition parameter was calculated by fitting the Hill equation to the data using GraphPad Prism 5 (GraphPad Software Inc., San Diego, CA, USA).
For orientation: Liver microsomes are vesicles of endoplasmic reticulum, rich in cytochrome P450 enzymes.

Data set [1] can be described thus: Pharmacokinetic study of zidovudine with or without sauchinone in mice. Conditions: for CLNR / AUC(0-t) / AUC / clearance / CL renal / MRT / Vd / half-life / Ae0–24 h / GI24 h: mean ± SD, n = 11; for AUC(0-t) / AUC / clearance / CL renal / MRT / Vd / half-life: mouse, plasma, iv, 15 mg/kg; for AUC(0-t): AUC480 min; for AUC: time zero to infinity; for clearance: CL; for CL renal: CLR; for Vd: Vss; for half-life: t1/2, mice; for Ae0–24 h: zidovudine excreted into urine for 24 h; for GI24 h: zidovudine remaining or excreted in GI at 24 h.

Another data set addresses T2, UGT2B7 (Homo sapiens, UniProt P16662).
T2 sequence (P16662 24-529): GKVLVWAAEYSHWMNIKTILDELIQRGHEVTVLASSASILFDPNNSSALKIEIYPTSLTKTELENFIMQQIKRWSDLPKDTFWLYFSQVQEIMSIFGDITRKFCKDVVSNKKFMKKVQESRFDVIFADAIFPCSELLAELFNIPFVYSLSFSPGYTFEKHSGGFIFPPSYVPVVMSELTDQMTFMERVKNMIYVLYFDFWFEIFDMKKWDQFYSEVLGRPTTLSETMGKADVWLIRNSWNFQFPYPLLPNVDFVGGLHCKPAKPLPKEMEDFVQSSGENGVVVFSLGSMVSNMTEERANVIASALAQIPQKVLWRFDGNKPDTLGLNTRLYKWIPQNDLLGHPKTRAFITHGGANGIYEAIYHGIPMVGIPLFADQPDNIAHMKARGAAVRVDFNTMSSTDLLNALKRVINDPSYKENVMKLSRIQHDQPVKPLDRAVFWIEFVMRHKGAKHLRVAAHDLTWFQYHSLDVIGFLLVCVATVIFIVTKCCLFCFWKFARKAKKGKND
Put plainly: Enzyme kinetic assay (Ki, Dixon plot) of UGT2B7-mediated zidovudine glucuronidation. The following applies: human, pH 7.6. As to the method: Inhibitory effects of sauchinone on UGT1A1, 1A3, 1A4, 1A6, 1A9, and 2B7 activities were evaluated using HLMs. […] Spiked volume of UGT cocktail set was 1% (v/v) of total volume of mixture. […] The reaction was initiated by adding 5 mM UDPGA to a final volume of 150 μL and incubated at 37 °C for 15 or 60 min in a thermomixer at 500 rpm. Each reaction was stopped by adding 150 μL of ice-cold methanol containing 50 ng/mL IS. These mixtures were then centrifuged (12,000 rpm for 10 min at 4 °C) and 5 μL of the supernatant was injected into a UPLC-MS/MS system. […] Their IC50 values were compared to that of sauchinone. All inhibitors were dissolved in methanol (except for hecogenin, which was dissolved in dimethyl sulfoxide) and serially diluted to the required concentrations using the same solutions. The final concentration of organic solvent of inhibitors was 1% (v/v). All studies were performed in triplicate and mean values were used in the analysis. The half maximal inhibition constant (IC50) of sauchinone on UGT isoforms was estimated using GraphPad program.
Based on IC50 values, Ki values of sauchinone for UGT1A6 and 2B7 were determined. Concentrations of 0–200 μM of sauchinone were used. Other procedures were similar to those mentioned above in the study of reversible inhibitory effects of sauchinone. Inhibitory characteristics of sauchinone were initially estimated by nonlinear least squares regression analysis and Ki values were determined by Dixon plots.

The next data set has as its target T3, UGT1A4 (Homo sapiens, UniProt P22310).
T3 construct: The reaction mixture containing 0.25 mg/mL protein of HLM; tissue Corning Life Sciences 452156; host or cells: pooled human liver microsomes, 50 donors
T3 sequence (P22310 29-534): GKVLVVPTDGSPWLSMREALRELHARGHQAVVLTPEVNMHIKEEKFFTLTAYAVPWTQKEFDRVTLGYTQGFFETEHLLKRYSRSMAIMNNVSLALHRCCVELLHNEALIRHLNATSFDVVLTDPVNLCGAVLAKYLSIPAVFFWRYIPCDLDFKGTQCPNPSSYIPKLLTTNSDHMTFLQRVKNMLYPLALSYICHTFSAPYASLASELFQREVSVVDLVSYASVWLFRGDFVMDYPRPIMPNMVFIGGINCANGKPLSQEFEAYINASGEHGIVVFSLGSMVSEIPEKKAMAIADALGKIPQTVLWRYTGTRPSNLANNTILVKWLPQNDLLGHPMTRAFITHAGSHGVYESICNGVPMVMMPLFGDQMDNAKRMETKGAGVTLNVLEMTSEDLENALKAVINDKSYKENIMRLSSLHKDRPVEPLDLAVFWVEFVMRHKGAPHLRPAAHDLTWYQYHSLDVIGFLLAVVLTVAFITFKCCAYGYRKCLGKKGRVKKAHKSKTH
Put plainly: Inhibition of UGT1A4 (trifluoperazine glucuronidation) in human liver microsomes. It is filed as in vitro ADME. How it is done:
as §1

The next data set deals with T4, UGT1A9 (Homo sapiens, UniProt O60656).
T4 construct: The reaction mixture containing 0.25 mg/mL protein of HLM; tissue Corning Life Sciences 452156; host or cells: pooled human liver microsomes, 50 donors
T4 sequence (O60656 26-530): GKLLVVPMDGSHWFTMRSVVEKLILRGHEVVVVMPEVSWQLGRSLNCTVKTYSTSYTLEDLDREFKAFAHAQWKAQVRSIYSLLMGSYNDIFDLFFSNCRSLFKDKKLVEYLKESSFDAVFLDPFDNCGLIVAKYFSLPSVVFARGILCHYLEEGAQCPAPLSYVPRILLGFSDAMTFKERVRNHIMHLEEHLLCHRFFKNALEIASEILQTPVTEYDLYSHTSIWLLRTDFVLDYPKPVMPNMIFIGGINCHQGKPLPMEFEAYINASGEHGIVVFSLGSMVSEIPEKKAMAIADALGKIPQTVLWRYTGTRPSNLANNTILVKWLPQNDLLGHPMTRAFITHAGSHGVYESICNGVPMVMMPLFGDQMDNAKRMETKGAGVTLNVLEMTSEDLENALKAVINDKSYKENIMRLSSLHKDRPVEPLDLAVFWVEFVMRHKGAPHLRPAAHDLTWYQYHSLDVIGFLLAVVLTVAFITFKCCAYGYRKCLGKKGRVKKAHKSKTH
Put plainly: Inhibition of UGT1A9 (propofol glucuronidation) in human liver microsomes. It counts as in vitro ADME. The following applies: substrate 100 μM propofol, mean (minimum–maximum). How it is done:
as §1

Substrate in data set [2]: NCCc1c[nH]c2ccc(O)cc12
Briefly: purified protein, by the assay type. The following applies: other: without sauchinone; pH 7.6; 37.0 °C.

Where [3] appears, read: mice, zidovudine 15 mg/kg iv with oral 100 mg/kg sauchinone.
Where [4] appears, read: mice, zidovudine 15 mg/kg iv with vehicle.
Setting [5] is: mice, zidovudine 15 mg/kg iv, oral 100 mg/kg sauchinone.

As for `O=c1cc(-c2ccccc2)oc2cc(O)cc(O)c12` [Chrysin], 28.3 µM corresponded to half-maximal inhibition against UGT1A1 (IC50).

With `Cc1cn([C@H]2C[C@H](N=[N+]=[N-])[C@@H](CO)O2)c(=O)[nH]c1=O` [zidovudine], in data set [1] (setting [3]), the CLNR is 24.5 ± 9.31 ^a mL/min/kg, the AUC(0-t) was 5730 ng·h/mL, the AUC was 5820 ng·h/mL and the clearance was 48.6 ± 16.1 mL/min/kg. In data set [1] (setting [3]), the CL renal is 24 ± 8.02 mL/min/kg, the MRT is 0.725 h, the Vd amounted to 2.1 ± 1.23 L/kg and the “Ae0–24 h” value is given as 50.2 ± 8.41 % of dose. Moreover, the GI24 h in data set [1] (setting [3]) is 0.321 ± 0.646 % of dose. Moreover, in data set [1] (setting [4]), the CLNR was 34.8 ± 10.5 mL/min/kg, the AUC(0-t) is 3780 ng·h/mL, the AUC was 3800 ng·h/mL and the clearance was found to be 68.7 ± 18.7 mL/min/kg. Besides, in data set [1] (setting [4]), the CL renal stood at 34 ± 11.2 mL/min/kg, the MRT is 0.93 h, the Vd turned out to be 3.31 ± 1.67 L/kg and the “Ae0–24 h” value is 50.3 ± 8.01 % of dose. For the same molecule, the GI24 h in data set [1] (setting [4]) is recorded as 0.672 ± 0.999 % of dose. In addition, in data set [1] (setting [5]), the “decrease of CL of zidovudine with sauchinone compared to without” value worked out at 29.3%, the “decrease of CLNR of zidovudine with sauchinone compared to without” value came out at 29.6% and the “increase of AUC480 min of zidovudine with sauchinone compared to without” value was determined as 53.1%. This molecule displayed a half-life in data set [1] (zidovudine 15 mg/kg iv with oral 100 mg/kg sauchinone) of 2.97 ± 1.55 h. This molecule registered a half-life in data set [1] (zidovudine 15 mg/kg iv with vehicle) of 3.45 ± 2.22 h. Besides, at UGT2B7, the Km is 85 µM.

Turning to `C[C@@H]1CC[C@@]2(OC1)O[C@H]1C[C@H]3[C@@H]4CC[C@H]5C[C@@H](O)CC[C@]5(C)[C@H]4CC(=O)[C@]3(C)[C@H]1[C@@H]2C` [Hecogenin], half-maximal inhibition on UGT1A4 (IC50) was put at 3.99 µM.

In turn, `O=C(O)c1cccnc1Nc1cccc(C(F)(F)F)c1` [Niflumic acid] registered an IC50 at UGT1A9 of 0.755 µM.

B1: UGT1A6 (Homo sapiens) (protein)
chain: DKLLVVPQDGSHWLSMKDIVEVLSDRGHEIVVVVPEVNLLLKESKYYTRKIYPVPYDQEELKNRYQSFGNNHFAERSFLTAPQTEYRNNMIVIGLYFINCQSLLQDRDTLNFFKESKFDALFTDPALPCGVILAEYLGLPSVYLFRGFPCSLEHTFSRSPDPVSYIPRCYTKFSDHMTFSQRVANFLVNLLEPYLFYCLFSKYEELASAVLKRDVDIITLYQKVSVWLLRYDFVLEYPRPVMPNMVFIGGINCKKRKDLSQEFEAYINASGEHGIVVFSLGSMVSEIPEKKAMAIADALGKIPQTVLWRYTGTRPSNLANNTILVKWLPQNDLLGHPMTRAFITHAGSHGVYESICNGVPMVMMPLFGDQMDNAKRMETKGAGVTLNVLEMTSEDLENALKAVINDKSYKENIMRLSSLHKDRPVEPLDLAVFWVEFVMRHKGAPHLRPAAHDLTWYQYHSLDVIGFLLAVVLTVAFITFKCCAYGYRKCLGKKGRVKKAHKSKTH
For B1, in data set [2], the Km came to 126 µM and the Vmax was found to be 174 μM/min/mg protein.

(Values after PMC6017115, “Inhibitory Effect of Sauchinone on UDP-Glucuronosyltransferase (UGT) 2B7 Activity” (Molecules : A Journal of Synthetic Chemistry and Natural …, 2018).)
